In publication PMC9950205, “Efficacy, safety, and pharmacokinetics of teduglutide in adult Japanese patients with short bowel syndrome and intestinal failure: two phase III studies with an extension” (Surgery Today, 2022):

Tests used:
Type in all cases: in vivo, human
[1] = tested on: adult Japanese patients with SBS-IF; experiment: Anti-teduglutide antibodies in blood samples
Description: In TED-C14-004 and SHP633-306, blood samples for PK evaluations were taken pre-dose and at 0.25, 0.5, 1, 2, 3, 4, 6, 8, 10, and 12 h post-dose during the first 12 weeks of treatment with teduglutide. In SHP633-307, patients continuing from study TED-C14-004 had blood samples for PK evaluations taken pre-dose and at […], and 1, 2, 3, 4, 6, 8, 10, and 12 h post-dose at the first extension study visit. Patients continuing from SHP633-306 had blood samples taken pre-dose and 1 and 2 h post-dose at the first extension study visit. Blood samples to test for the presence of antibodies to teduglutide were taken at baseline and weeks 12 and 24 in SHP633-306; ≥ 14 h after dosing at baseline and weeks 12 and 24, and then every 6 months thereafter in TED-C14-004; and every 3 months in SHP633-307.
Safety analyses included the monitoring of adverse events (AEs), body weight, BMI, vital signs, 12-lead electrocardiogram (ECG), serum biochemistry, hematology, and presence of antibodies to teduglutide. AEs were coded using the Medical Dictionary for Regulatory Activities versions 17.1 (TED-C14-004) and 21.0 (SHP633-306 and SHP633-307). Specifically, AEs were treatment-emergent AEs (TEAEs), defined as any unfavorable and unintended sign (including any abnormal laboratory finding), symptom, or disease that occurred during treatment with teduglutide, whether or not the event was considered to be related to the study drug by the clinical study investigator. AEs were also categorized as mild, moderate, or severe. […] AEs were considered related to treatment with teduglutide, or its administration, based on the investigator's medical judgment.

[2] = tested on: adult Japanese patients with SBS-IF; experiment: Urine output, change from baseline; details: for 48 h urine output increase from baseline / 48 h urine output percent increase from baseline: 24 weeks
Description: (§1) As in the previous STEPS-1 study, patients participating in the core studies (TED-C14-004 and SHP633-306) underwent an optimization (2–8 weeks) and stabilization (4–8 weeks) period before initiation of treatment with teduglutide, during which PS was adjusted with the goal of achieving a stable target urine output of 1.0–2.0 L/day. All participating patients received teduglutide 0.05 mg/kg SC once daily throughout these three studies. PS was adjusted according to an algorithm based on the change from baseline in urine output and other assessments of fluid balance and nutrition status; the PS adjustment algorithm required reductions in PS if the urine output rose more than 10% above baseline. Patients had study visits at weeks 2 and 4, after which visits were held monthly during TED-C14-004 and SHP633-306. During SHP633-307, patients from SHP633-306 had monthly study visits throughout the 24 total months of treatment and then at 3-month intervals thereafter, and patients from TED-C14-004 had visits at 3-month intervals. The end-of-study assessments for SHP633-306 and TED-C14-004 were combined with the first visit of SHP633-307. SHP633-307 is ending soon with the approval of teduglutide in Japan.

[3] = tested on: adult Japanese patients with SBS-IF; experiment: Parenteral support (PS) requirements in phase III studies TED-C14-004, SHP633-306 and extension SHP633-307, teduglutide 0.05 mg/kg SC once daily; details: for Patients with reduction in weekly PS volume of ≥ 20% from baseline at both weeks 20 and 24: 0.05 mg/kg SC once daily; for Patients whose PS volume decreased by ≥ 20%: 0.05 mg/kg/day
Description: as §1
Efficacy endpoints were defined in an analogous manner to previous pivotal studies. These included a clinically meaningful reduction in weekly PS volume of ≥ 20% [17] measured between baseline and both 20 and 24 weeks for TED-C14-004 and SHP633-306, and a continued reduction in weekly PS volume of ≥ 20% from the baseline in core studies at each scheduled visit until the last visit before the interim data cut-off of SHP633-307. Other efficacy endpoints included changes in absolute and percentage weekly PS volumes from the baseline in the core studies at each study visit, the number of days per week of PS, the number of patients who achieved enteral autonomy at the end of treatment or the data cut-off, and the changes in plasma citrulline levels from baseline in the core studies. The primary efficacy data were derived from patient diaries and compared against investigator-prescribed data captured in electronic case report forms.
Efficacy was evaluated between baseline and 24 weeks in TED-C14-004 and SHP633-306 and between baseline and 30 months in […]. Among patients who entered SHP633-307, the total follow-up periods, including the prior studies, were up to 14–57 months of total teduglutide exposure for patients from SHP633-306 and TED-C14-004.
Post hoc analyses of PS volume reductions in patients with Crohn’s disease, with and without a stoma, were performed for TED-C14-004.

[4] = 30 months, TED-C14-004, n = 7, mean ± SD
[5] = after 6 months, patients who advanced to SHP633-307 from SHP633-306, n = 4, mean ± SD
[6] = last visit before interim data cut-off of SHP633-307, patients from TED-C14-004, n = 7, mean ± SD
[7] = 12 months, patients from SHP633-306, n = 4, mean ± SD
[8] = 24 weeks, SHP633-306, n = 6, mean ± SD
[9] = 24 weeks, TED-C14-004, n = 9, mean ± SD
[10] = 39 months, patients from TED-C14-004 in extension study, n = 5, mean ± SD
[11] = interim data cut-off, patients from TED-C14-004 in extension study, n = 3, mean ± SD
[12] = last visit before interim data cut-off of SHP633-307, patients from SHP633-306, n = 2, mean ± SD
[13] = post hoc, TED-C14-004, patients with Crohn’s disease, 24 weeks, n = 7, mean ± SD
[14] = post hoc, TED-C14-004, patients with Crohn’s disease, 30 months, n = 6, mean ± SD
[15] = post hoc, TED-C14-004, patients with a stoma, 24 weeks, n = 6, mean ± SD
[16] = post hoc, TED-C14-004, patients with a stoma, 30 months, n = 5, mean ± SD
[17] = post hoc, TED-C14-004, patients without a stoma, 24 weeks, n = 3, mean ± SD
[18] = post hoc, TED-C14-004, patients without a stoma, 30 months, n = 2, mean ± SD

In the case of CC[C@H](C)[C@H](NC(=O)[C@H](Cc1ccccc1)NC(=O)[C@H](CC(=O)O)NC(=O)[C@H](CCCNC(=N)N)NC(=O)[C@H](C)NC(=O)[C@H](C)NC(=O)[C@H](CC(C)C)NC(=O)[C@H](CC(N)=O)NC(=O)[C@H](CC(=O)O)NC(=O)[C@H](CC(C)C)NC(=O)[C@@H](NC(=O)[C@@H](NC(=O)[C@H](CC(N)=O)NC(=O)[C@H](CCSC)NC(=O)[C@H](CCC(=O)O)NC(=O)[C@H](CC(=O)O)NC(=O)[C@H](CO)NC(=O)[C@H](Cc1ccccc1)NC(=O)[C@H](CO)NC(=O)CNC(=O)[C@H](CC(=O)O)NC(=O)CNC(=O)[C@@H](N)Cc1c[nH]cn1)[C@@H](C)O)[C@@H](C)CC)C(=O)N[C@@H](CC(N)=O)C(=O)N[C@@H](Cc1c[nH]c2ccccc12)C(=O)N[C@@H](CC(C)C)C(=O)N[C@H](C(=O)N[C@@H](CCC(N)=O)C(=O)N[C@H](C(=O)N[C@@H](CCCCN)C(=O)N[C@H](C(=O)N[C@H](C(=O)N[C@@H](CC(=O)O)C(=O)O)[C@@H](C)O)[C@@H](C)CC)[C@@H](C)O)[C@@H](C)CC [teduglutide], the “Patients positive for anti-teduglutide antibodies” value ([1]; 24 weeks, 5 out of 14 patients (n = 4 TED-C14-004; n = 1 SHP633-306)) is reported as 35.7%, the “Patients with low titers of anti-teduglutide antibodies as well as neutralizing antibodies” value ([1]; 39 months, patients from TED-C14-004 in SHP633-307, two patients) is reported as 40.0% and the Anti-teduglutide antibodies ([1]; 51 or 54 months, n = 7) is reported as “No anti-teduglutide antibodies were detected”. The “Patients positive at 24 weeks who also tested positive up to 22 months” value ([1]; TED-C14-004) was “Three of the 4 patients”, the “Association between anti-teduglutide antibodies and a lack of efficacy” value ([1]; all studies) was “no association” and the “Patients positive for antibodies to teduglutide” value ([1]; month 12, SHP633-307 patients from SHP633-306, 2 out of 4) was 50.0%. The “Association of anti-teduglutide antibodies with AEs of hypersensitivity or teduglutide-related hypersensitivity reaction” value ([1]; patients in whom antibodies were detected) was “no association”, the “48 h urine output increase from baseline” value ([2]; SHP633-306, n = 6, mean ± SD) was 212.5 ± 265.9 mL/day and the “48 h urine output percent increase from baseline” value ([2]; SHP633-306, n = 6, mean ± SD) was 18.0% ± 23.9%. The “48 h urine output increase from baseline” value ([2]; TED-C14-004, n = 9, mean ± SD) was 226.7 ± 555.1 mL/day, the “48 h urine output percent increase from baseline” value ([2]; TED-C14-004, n = 9, mean ± SD) was 9.3% ± 22.4% and the “Urine output increase from baseline” value [2, 4] was 306.0 ± 735.0 mL/day. The “Urine output percent increase from baseline” value [2, 4] was 11.2% ± 24.6%, the “Urine output increase from baseline” value [2, 5] was 345.0 ± 217.8 mL/day and the “Urine output percent increase from baseline” value [2, 5] was 29.0 ± 21.6%. The Mean urine output [2, 6] was 1388.2 ± 507.8 mL/day, the “Urine output percent change from baseline” value [2, 6] was −2.0% ± 35.3% and the “PS volume decrease from baseline” value [3, 7] was 7.3 ± 6.5 L/week. The “PS volume percent change from baseline” value [3, 7] was −51.6% ± 28.5%, the “PS volume decrease from baseline” value [3, 8] was 3.3 ± 3.6 L/week and the “PS volume percent change from baseline” value [3, 8] was −25.6% ± 25.5%. For the same molecule, the “Reduction in PS infusion frequency from baseline” value [3, 8] was 0.5 ± 1.23 days/week, the “PS volume decrease from baseline” value [3, 9] was 4.9 ± 4.8 L/week and the “PS volume percent change from baseline” value [3, 9] was −30.1% ± 25.9%. The “Reduction in PS infusion frequency from baseline” value [3, 9] was 1.0 ± 1.8 days/week, the “PS volume decrease from baseline” value [3, 4] was 8.3 ± 5.9 L/week and the “PS volume percent change from baseline” value [3, 4] was −53.5% ± 33.9%. For the same molecule, the “Reduction in PS infusion frequency from baseline” value [3, 4] was 2.1 ± 3.3 days/week, the “PS volume decrease from baseline” value [3, 10] was 7.9 ± 4.5 L/week and the “PS volume percent change from baseline” value [3, 10] was −63.6% ± 33.9%. For the same molecule, the “Patients with reduction in weekly PS volume of ≥ 20% from baseline at both weeks 20 and 24” value ([3]; SHP633-306, 4 of 7 patients) was 57.1%, the “Patients with reduction in weekly PS volume of ≥ 20% from baseline at both weeks 20 and 24” value ([3]; TED-C14-004, 5 of 11 patients) was 45.5% and the “Patients with reduction in weekly PS volume of ≥ 20% from baseline at both weeks 20 and 24” value ([3]; TED-C14-004 and SHP633-306 together, 9 of 18 patients) was 50%. The “Patients with ≥ 20% reduction in weekly PS volume from baseline” value ([3]; after 30 months, TED-C14-004, 6 of 7 patients) was 85.7%, the “Patients whose PS volume decreased by ≥ 20%” value ([3]; at 24 weeks, TED-C14-004 and SHP633-306) was 9/18 and the “PS volume percent change from baseline” value ([3]; at data cut-off in SHP633-307, all patients, mean ± SD) was −57.08 ± 28.49%. For the same molecule, the “Patients who achieved enteral autonomy” value ([3]; by 30 months, TED-C14-004, 2 of 8 patients) was 25%, the “Patients whose PS volume decreased by ≥ 20%” value ([3]; by data cut-off in SHP633-307) was “all 11 patients” and the “Patients with ≥ 20% reduction in weekly PS volume” value ([3]; by the end of TED-C14-004, maintained to last visit before data cut-off in the extension study) was “all patients”. The “Patients who maintained ≥ 20% reduction in PS volume from baseline at each scheduled visit to the last visit before data cut-off” value ([3]; extension study SHP633-307, patients from SHP633-306) was “All patients”, the “Patients who achieved enteral autonomy” value ([3]; first 24 weeks, SHP633-306 and TED-C14-004) was “No patients” and the “Reduction in PS infusion frequency from baseline” value ([3]; interim data cut-off of extension study, patients from SHP633-306, mean ± SD) was 1.9 ± 2.3 days/week. For the same molecule, the “PS volume decrease from baseline” value [3, 11] was 11.5 ± 3.7 L/week, the “PS volume percent change from baseline” value [3, 11] was −63.57% ± 32.0% and the “PS volume decrease from baseline” value [3, 12] was 11.7 ± 8.6 L/week. For the same molecule, the “PS volume percent change from baseline” value [3, 12] was −76.4% ± 25.9%, the “PS volume decrease from baseline” value [3, 13] was 5.3 ± 5.4 L/week and the “PS volume percent change from baseline” value [3, 13] was −31.9% ± 28.9%. For the same molecule, the “PS volume decrease from baseline” value [3, 14] was 9.3 ± 5.8 L/week, the “PS volume percent change from baseline” value [3, 14] was −59.4% ± 32.9% and the “PS volume decrease from baseline” value [3, 15] was 6.1 ± 5.5 L/week. The “PS volume percent change from baseline” value [3, 15] was −35.3% ± 30.1%, the “PS volume decrease from baseline” value [3, 16] was 10.7 ± 5.4 L/week and the “PS volume percent change from baseline” value [3, 16] was −65.2% ± 33.2%. For the same molecule, the “PS volume decrease from baseline” value [3, 17] was 2.7 ± 1.8 L/week, the “PS volume percent change from baseline” value [3, 17] was −19.6% ± 13.1% and the “PS volume decrease from baseline” value [3, 18] was 2.5 ± 0.2 L/week. The “PS volume percent change from baseline” value [3, 18] was −24.3% ± 8.7%, the “Maintenance of enteral autonomy” value ([3]; the 2 patients of TED-C14-004 with enteral autonomy, throughout SHP633-307 until interim data cut-off) was “remained off PS” and the “Reduction in PS infusion frequency from baseline” value ([3]; up to the end of the extension study, patients from TED-C14-004, mean ± SD) was 2.2 ± 3.3 days/week.
